Experimental findings from patent US20240400506A1, “DIROXIMEL FUMARATE PARTICLES HAVING IMPROVED FLOW PROPERTIES AND METHODS OF MAKING SAME” (BIOGEN MA INC., priority 2021, published 2024) are described below.

The structures appear in SMILES notation. Where a name gives a salt, the structure may show the parent alone.

Data set [1] can be described thus: Particle size distribution (volume diameter D10/D50/D90, span). It counts as physicochemical. The settings on record: for Final PSD after ripening D10 / Final PSD after ripening D50 / Final PSD after ripening D90: after ripening at 40, 43 or 48 °C; for D10 (values across lots) / span (values across lots): range over the lots of the example. As for the experimental part: Particle size is expressed in terms of volume diameter, which is used to provide a dimensional description of particles which are non-spherical. “Volume diameter” refers to the diameter of a sphere with equal volume of the non-spherical particle. Particle size can be measured according to methods well known in the art, including a laser diffraction technique that correlates light scattering to particle volume on which effective length or effective diameter is calculated.
Particle size distribution is expressed in terms of D50, D10, D90 and span. “Span” is a measure for particle size distribution. It is calculated according to the following equation: […]
“D50”, also known as the median diameter, corresponds to the value under which 50% of the particles has a lower volume diameter. “D90” corresponds to the value under which 90% of the particles has a lower volume diameter. “D10” corresponds to the value under which 10% of the particles has a lower volume diameter.

Data set [2] can be described thus: Ring shear test: flow function coefficient and cohesion (Jenike-Johanson RST-XS, ASTM D6773-16). It counts as physicochemical. The settings on record: neat particles; for average cohesion: four lots (FIG. 3); for average FFc (flow function coefficient): four lots, pre-load 3 kPa (FIG. 2). The text has this:
“Flow function”, “flow function coefficient”, or FFc is a parameter commonly used to rank the flowability of a particulate sample, which could be a sample of neat API particles or a blend containing API particles plus additives. • Powder flowability is ranked as follows: • FFc<1 not flowing • 1<FFc<2 very cohesive • 2<FFc<4 Cohesive • 4<FFc<10 easy flowing • FFc>10 free flowing The measurement of FFc and Cohesion outlined below follows the procedures described in ASTM D6773-16. […] To test FFc and Cohesion, a particulate sample is added to a commercially available ring shear testing device, such as a Jenike-Johanson RST-XS ring shear tester. Such testing is familiar to the person of ordinary skill in the art. In general, the powder is loaded into an annular trough and a consolidated powder bed is formed. A normal stress (σp) is applied to the consolidated powder bed and the pre-shear stress (ζp) is measured. The normal stress is applied as a vertical load through an annular lid. The shear cell rotates relative to the lid and the torque necessary for shearing is measured. Repeat measurements with a series of values of normal stress are applied. When the measured shear stress values (Y-axis) are plotted as function of applied normal stress values (X-axis), the linear relation between them is called the yield locus. The yield locus line can be used to determine a unique relationship between normal stress and shear stress; this is known as a Mohr circle. The yield locus line represents a tangential line of all Mohr circles. The outer larger radius circle corresponds to pre-shear conditions (σp, ζp) and defines the Major Principal Stress, MPS (σ1). The smaller radius circle defines the Unconfined Yield Stress, UYS (σc). Flow function coefficient or FFc is the ratio of Major Principle Stress (MPS) to the Unconfined Yield Strength (UYS): Cohesion is the propensity for particles within a sample to self-associate or “stick together”. The ring shear tester measures cohesion at the same time that it measure FFc. The intercept of yield locus line at zero normal stress (i.e., where the extrapolation of the yield locus line intercepts the Y axis) is known as powder cohesion, and is expressed in Pascal (Pa) units. Lower cohesion is associated with better powder flowability. Further, cohesion predicts how particulate samples will behave when stored, for example when stored in a silo. […] The flow function coefficient (FFc) was measured as described above to quantify the flow properties of neat diroximel fumarate particles of Example 1 (dry milled) and Example 2 (wet milled and ripened). […]

Setting [3] is: dry milled API, representative commercial lot.
[4] abbreviates: dry milled API, (D90 − D10)/D50.
The mark [5] stands for this setting: final PSD after ripening, (D90 − D10)/D50.
Where [6] appears, read: final product, wet milled and ripened in IPAC/IPA, 43 °C.

Take `COC(=O)/C=C/C(=O)OCCN1C(=O)CCC1=O` [compound 2, diroximel fumarate]: in data set [1], the “Final PSD after ripening D10” value came out at 40.7 μm, the “Final PSD after ripening D50” value came to 96.1 μm and the “Final PSD after ripening D90” value came out at 204.5 μm. In data set [1] (before ripening), the “PSD after wet milling D10” value came out at 12.4 μm, the “PSD after wet milling D50” value is recorded as 66.3 μm and the “PSD after wet milling D90” value was found to be 179 μm. In data set [1] (setting [3]), the D10 came to 17 μm, the D50 came out at 106 μm and the D90 is listed as 347 μm. In addition, the Span in data set [1] (setting [4]) stood at 3.1. For the same molecule, the Span in data set [1] (setting [5]) was 1.7.

Take `COC(=O)/C=C/C(=O)OCCN1C(=O)CCC1=O` [Example 1, diroximel fumarate]: in data set [1], the “D10 (values across lots)” value is reported as 16-18 μm and the “span (values across lots)” value was 2.9-3.4. Besides, in data set [2], the average cohesion was found to be 270 Pa and the “average FFc (flow function coefficient)” value is “less than 4”.

As for `COC(=O)/C=C/C(=O)OCCN1C(=O)CCC1=O` [compound 3, diroximel fumarate], in data set [1], the “Final PSD after ripening D10” value was determined as 41.0 μm, the “Final PSD after ripening D50” value turned out to be 111.9 μm and the “Final PSD after ripening D90” value was determined as 222.9 μm. In data set [1] (before ripening), the “PSD after wet milling D10” value amounted to 9.15 μm, the “PSD after wet milling D50” value stood at 35.2 μm and the “PSD after wet milling D90” value was 116 μm. In data set [1] (setting [3]), this molecule returned a D10 of 18 μm, a D50 of 101 μm and a D90 of 307 μm. This molecule also had a Span in data set [1] (setting [4]) of 2.9. Further, the Span in data set [1] (setting [5]) is 1.6.

As for `COC(=O)/C=C/C(=O)OCCN1C(=O)CCC1=O` [compound 1, diroximel fumarate], in data set [1], the “Final PSD after ripening D10” value is on record as 37.2 μm, the “Final PSD after ripening D50” value is recorded as 89.3 μm and the “Final PSD after ripening D90” value was 162.5 μm. In data set [1] (before ripening), the “PSD after wet milling D10” value was 11.6 μm, the “PSD after wet milling D50” value came out at 53.0 μm and the “PSD after wet milling D90” value is 155 μm. In data set [1] (setting [3]), this molecule registered a D10 of 17 μm, a D50 of 96 μm and a D90 of 347 μm. In data set [1] (setting [4]), this molecule yielded a Span of 3.4. Further, in data set [1] (setting [5]), the Span was 1.4.

For the molecule `COC(=O)/C=C/C(=O)OCCN1C(=O)CCC1=O` [Example 2, diroximel fumarate], in data set [1], the “D10 (values across lots)” value is reported as 37.2-41.0 μm and the “span (values across lots)” value is given as 1.4-1.7. For the same molecule, in data set [2], the average cohesion came to 219 Pa and the “average FFc (flow function coefficient)” value was “about 4”.

In the case of `COC(=O)/C=C/C(=O)OCCN1C(=O)CCC1=O` [Example 6, diroximel fumarate], the “median particle size D50, in-process after wet milling” value in data set [1] (IPAC/IPA slurry, after 23 volume turnovers, before ripening) is 43 microns. In data set [1] (final product, wet milled and ripened in IPAC/IPA), this molecule registered a Span of 1.4. In data set [1] (setting [6]), this molecule returned a D10 of 40 μm, a D50 of 92 μm and a D90 of 173 μm.

In the case of `COC(=O)/C=C/C(=O)OCCN1C(=O)CCC1=O` [compound 4, diroximel fumarate], in data set [1] (setting [3]), the D10 was 16 μm, the D50 is 95 μm and the D90 is given as 302 μm. This molecule also returned a Span in data set [1] (setting [4]) of 3.0.
